Assay results taken from patent US11622991B2, “Protocol for treatment of lupus nephritis” (Aurinia Pharmaceuticals Inc., priority 2017, dated 2023).

Key:
Type in all cases: in vivo, human
lupus nephritis [1] = test: Low dosage protocol (15.8 mg or 7.9 mg BID)
lupus nephritis [2] = test: Predictability of week 48 partial remission from early C3/C4 normalization (Table 12)
Excerpt: (§1) PR is defined as at least 50% reduction in proteinuria (i.e. UPCR).
(§2) Sensitivity is defined as the probability that a subject showing PR at 48 weeks would have shown a favorable result with regard to the marker at the designated early time point. In the tables below, this is the ratio of the number of subjects with favorable marker results (early drop or normalization) to the total subjects with 48 week PR.
(§3) Specificity is defined as the probability that a subject not showing PR at 48 weeks would have shown an unfavorable result with regard to the marker at the designated early time point. In the tables below, this is the ratio of the number of subjects with unfavorable marker results (no early drop or no normalization) to the total subjects with no 48 week PR.
(§4) Positive predictive value is defined as the probability that a subject showing a favorable result with respect to the marker at an earlier time point would show PR at 48 weeks. In the tables below, this is the ratio of the number of subjects with favorable marker results who have 48 week PR to those with favorable marker results (early reduction or yes column).
(§5) Negative predictive value is defined as the probability that a subject showing an unfavorable result with respect to the marker at an earlier time point would not show PR at 48 weeks. In the tables below, this is the ratio of the number of subjects with unfavorable marker results who have no PR at 48 weeks to the total subjects with unfavorable marker results (no early reduction or no column).
(§6) Another criterion for effectiveness is normalization of C3 and/or C4 concentration in blood. The normal concentration of C3 is 90 mg/dl or greater and for C4 16 mg/dl or greater.

lupus nephritis [3] = test: Probability of attaining CR by proteinuria depending on UPCR reduction of 25% at 8 weeks (Tables 9a, 9b)
lupus nephritis [4] = test: Predictability of week 48 partial remission from early C4 normalization (Table 11)
Excerpt: as §1, §2, §3, §4, §5, §6

lupus nephritis [5] = test: Predictability from early reduction in UPCR or C3/C4 normalization combined at 12 weeks (Tables 13-17); conditions: number of patients
Excerpt: as §1, §2, §3, §4
Negative predictive value is defined as the probability that a subject showing an unfavorable result with respect to the marker at an earlier time point would not show PR at 48 weeks. In the tables below, this is the ratio of the number of subjects with unfavorable marker results who have no PR at 48 weeks to the total subjects with unfavorable marker results (no early reduction or no column). […]

[6] = Early 25% reduction in UPCR or C3/C4 normalization, Week 12, 23.7 mg BID
[7] = Early 25% reduction in UPCR or C3/C4 normalization, Week 12, 39.5 mg BID
[8] = Early 25% reduction in UPCR or C3/C4 normalization, Week 24, 23.7 mg BID
[9] = Early 25% reduction in UPCR or C3/C4 normalization, Week 48, 23.7 mg BID
[10] = Early 30% reduction in UPCR or C3/C4 normalization, Week 12, 23.7 mg BID
[11] = Early 30% reduction in UPCR or C3/C4 normalization, Week 12, 39.5 mg BID
[12] = Early 30% reduction in UPCR or C3/C4 normalization, Week 24, 23.7 mg BID

Compound: C=C/C=C/C[C@@H](C)[C@@H](O)[C@H]1C(=O)N[C@@H](CC)C(=O)N(C)CC(=O)N(C)[C@@H](CC(C)C)C(=O)N[C@@H](C(C)C)C(=O)N(C)[C@@H](CC(C)C)C(=O)N[C@@H](C)C(=O)N[C@H](C)C(=O)N(C)[C@@H](CC(C)C)C(=O)N(C)[C@@H](CC(C)C)C(=O)N(C)[C@@H](C(C)C)C(=O)N1C [voclosporin]
- remission at reduced dosage (lupus nephritis [1]; dosage lowered to 7.9 mg BID quite early in the treatment): Substantial numbers of subjects showed complete or partial remission
- remission at reduced dosage (lupus nephritis [1]; dosage reduced almost immediately to 15.8 mg BID): a substantial portion of subjects showed substantial remission
- Normalization Yes (lupus nephritis [2]; week 12, 23.7 mg BID): 26
- No Week 48 Partial Remission No Normalization (lupus nephritis [2]; week 12, 39.5 mg BID): 10
- No Week 48 Partial Remission Normalization (lupus nephritis [2]; week 12, 39.5 mg BID): 7
- Week 48 Partial Remission No Normalization (lupus nephritis [2]; week 12, 39.5 mg BID): 33
- Week 48 Partial Remission Normalization (lupus nephritis [2]; week 12, 39.5 mg BID): 29
- No Week 48 Partial Remission No Normalization (lupus nephritis [2]; week 24, 23.7 mg BID): 10
- No Week 48 Partial Remission Normalization (lupus nephritis [2]; week 24, 23.7 mg BID): 4
- Normalization Yes (lupus nephritis [2]; week 24, 23.7 mg BID): 27
- Normalization Yes (lupus nephritis [2]; week 24, 39.5 mg BID): 31
- No Week 48 Partial Remission No Normalization (lupus nephritis [2]; week 48, 23.7 mg BID): 8
- No Week 48 Partial Remission Normalization (lupus nephritis [2]; week 48, 23.7 mg BID): 2
- No Week 48 Partial Remission No Normalization (lupus nephritis [2]; week 48, 39.5 mg BID): 11
- Normalization Yes (lupus nephritis [2]; week 48, 39.5 mg BID): 32
- # of patients without UPCR reduction of ≥25% at 8 weeks (lupus nephritis [3]; High Dose (39.5 mg BID)): 12
- # of CRs by Proteinuria at 24 weeks (lupus nephritis [3]; Low Dose (23.7 mg BID)): 29
- # of patients with UPCR reduction of ≥25% at 8 weeks (lupus nephritis [3]; Low Dose (23.7 mg BID)): 64
- # of patients without UPCR reduction of ≥25% at 8 weeks (lupus nephritis [3]; Low Dose (23.7 mg BID)): 16
- No Week 48 Partial Remission No Normalization (lupus nephritis [4]; week 12, 23.7 mg BID): 8
- No Week 48 Partial Remission Normalization (lupus nephritis [4]; week 12, 23.7 mg BID): 10
- No Week 48 Partial Remission No Normalization (lupus nephritis [4]; week 12, 39.5 mg BID): 9
- No Week 48 Partial Remission Normalization (lupus nephritis [4]; week 12, 39.5 mg BID): 8
- Normalization No (lupus nephritis [4]; week 12, 39.5 mg BID): 31
- Normalization Yes (lupus nephritis [4]; week 12, 39.5 mg BID): 48
- No Week 48 Partial Remission Normalization (lupus nephritis [4]; week 24, 23.7 mg BID): 8
- Normalization No (lupus nephritis [4]; week 24, 23.7 mg BID): 31
- Week 48 Partial Remission Normalization (lupus nephritis [4]; week 24, 23.7 mg BID): 32
- Normalization No (lupus nephritis [4]; week 48, 23.7 mg BID): 31
- Week 48 Partial Remission Normalization (lupus nephritis [4]; week 48, 23.7 mg BID): 29
- No Week 48 Partial Remission No Normalization (lupus nephritis [4]; week 48, 39.5 mg BID): 11
- No Week 48 Partial Remission, No Early Drop or Normal (lupus nephritis [5]; [6]): 3
- Week 48 Partial Remission, No Early Drop or Normal (lupus nephritis [5]; [6]): 2
- No Week 48 Partial Remission, No Early Drop or Normal (lupus nephritis [5]; [7]): 3
- Week 48 Partial Remission, No Early Drop or Normal (lupus nephritis [5]; [7]): 3
- Early Drop or Normal No (lupus nephritis [5]; [8]): 1
- No Week 48 Partial Remission, No Early Drop or Normal (lupus nephritis [5]; [8]): 1
- Early Drop or Normal No (lupus nephritis [5]; Early 25% reduction in UPCR or C3/C4 normalization, Week 24, 39.5 mg BID): 10
- Early Drop or Normal No (lupus nephritis [5]; [9]): 1
- No Week 48 Partial Remission, Early Drop or Normal (lupus nephritis [5]; [9]): 10
- No Week 48 Partial Remission, No Early Drop or Normal (lupus nephritis [5]; [9]): 1
- No Week 48 Partial Remission, Early Drop or Normal (lupus nephritis [5]; Early 25% reduction in UPCR or C3/C4 normalization, Week 48, 39.5 mg BID): 10
- No Week 48 Partial Remission, No Early Drop or Normal (lupus nephritis [5]; [10]): 3
- Week 48 Partial Remission, No Early Drop or Normal (lupus nephritis [5]; [10]): 2
- Early Drop or Normal No (lupus nephritis [5]; [11]): 7
- No Week 48 Partial Remission, No Early Drop or Normal (lupus nephritis [5]; [11]): 3
- Week 48 Partial Remission, No Early Drop or Normal (lupus nephritis [5]; [11]): 4
- Early Drop or Normal No (lupus nephritis [5]; [12]): 1
- No Week 48 Partial Remission, No Early Drop or Normal (lupus nephritis [5]; [12]): 1
